{"source": "patent US12286428B2", "about": "(BRISTOL-MYERS SQUIBB COMPANY, priority 2019, dated 2025)", "key": {"[1]": {"molecular_target": "T1, IRAK4 (Homo sapiens, UniProt Q9NWZ3)", "T1 sequence (Q9NWZ3 1-460)": "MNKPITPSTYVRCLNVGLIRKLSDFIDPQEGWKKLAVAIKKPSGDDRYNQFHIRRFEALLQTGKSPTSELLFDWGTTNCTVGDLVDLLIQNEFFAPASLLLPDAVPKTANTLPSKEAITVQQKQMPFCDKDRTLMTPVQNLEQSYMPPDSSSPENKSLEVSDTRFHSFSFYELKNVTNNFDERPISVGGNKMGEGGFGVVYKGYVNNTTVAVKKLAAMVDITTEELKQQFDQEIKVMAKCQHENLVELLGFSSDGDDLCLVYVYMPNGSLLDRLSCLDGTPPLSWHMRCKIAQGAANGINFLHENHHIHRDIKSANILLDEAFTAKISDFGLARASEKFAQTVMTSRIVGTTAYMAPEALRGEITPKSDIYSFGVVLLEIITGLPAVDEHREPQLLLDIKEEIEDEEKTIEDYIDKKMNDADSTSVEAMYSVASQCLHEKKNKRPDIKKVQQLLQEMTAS", "assay": "IRAK4 Inhibition Assay", "assay_type": "biochemical", "settings": "ATP 500 μM, IRAK4 0.6 nM, 60 min room temperature, Caliper LABCHIP 3000", "protocol": "The assays were performed in U-bottom 384-well plates. […] The reaction was initiated by the combination of IRAK4 with substrates and test compounds. The reaction mixture was incubated at room temperature for 60 min. and terminated by adding 45 μL of 35 mM EDTA to each sample. The reaction mixture was analyzed on the Caliper LABCHIP® 3000 (Caliper, Hopkinton, MA) by electrophoretic separation of the fluorescent substrate and phosphorylated product. […] The final concentrations of reagents in the assays are ATP, 500 μM; FL-[…] peptide 1.5 μM; IRAK4, 0.6 nM; and DMSO, 1.6%."}, "[2]": {"system": "Human whole blood, IL-6 levels after TLR2 agonist lipoteichoic acid", "assay": "IRAK4 Whole Blood Assay", "assay_type": "cell-based", "settings": "compounds 60 minutes at 37° C., lipoteichoic acid 10 μg/mL for 5 hours", "protocol": "IRAK4 Whole Blood Assay Human whole blood containing the anti-coagulant ACD-A was plated in 384-well plate (25 μL/well) and incubated with compounds for 60 minutes at 37° C. in a 5% CO2 incubator. The blood was stimulated with a TLR2 agonist, 10 μg/mL final concentration of lipoteichoic acid (Invivogen, San Diego, CA) in 25 μL RPMI (Gibco) for 5 hours in a 5% CO2 incubator. At the end of the incubation, plates were centrifuged at 2300 rpm for 5 minutes. Supernatants were harvested and analyzed for IL-6 levels by Flow Cytometry beads assay (BD Biosciences, San Jose, CA)."}, "[3]": {"settings": "FL-IPTSPITTTYFFFKKK peptide […]"}}, "data": [{"smiles": "CC[C@H]1[C@@H](COc2cccc3cc(C(N)=O)c4nccn4c23)NC(=O)C1(F)F", "note": "[Example 10, 9-(((2S,3S)-3-ethyl-4,4-difluoro-5-oxopyrrolidin-2-yl)methoxy)imidazo[1,2-a]quinoline-4-carboxamide]", "values": [{"measurement": "IC50", "setting": "[1]; [3]", "result": 1.9, "unit": "nM"}, {"measurement": "IC50", "setting": "[2]", "result": 1390, "unit": "nM"}]}, {"smiles": "CC[C@H]1CC(=O)N[C@@H]1COc1cccc2cc(C(N)=O)c3nccn3c12", "note": "[Example 3, 9-(((2S,3S)-3-ethyl-5-oxopyrrolidin-2-yl)methoxy)imidazo[1,2-a]quinoline-4-carboxamide]", "values": [{"measurement": "IC50", "setting": "[1]; [3]", "result": 1.7, "unit": "nM"}, {"measurement": "IC50", "setting": "[2]", "result": 152, "unit": "nM"}]}, {"smiles": "CC[C@@H]1CC(=O)N[C@@H]1COc1nccc2cc(C(N)=O)c3c(c12)CCO3", "note": "[Example 54, 1-(((2S,3R)-3-ethyl-5-oxopyrrolidin-2-yl)methoxy)-8,9-dihydrofuro[2,3-h]isoquinoline-6-carboxamide]", "values": [{"measurement": "IC50", "setting": "[1]; [3]", "result": 13.6, "unit": "nM"}, {"measurement": "IC50", "setting": "[2]", "result": 1100, "unit": "nM"}]}, {"smiles": "CC[C@@H]1CC(=O)N[C@@H]1COc1cccc2cc(C(N)=O)c3nc(C)cn3c12", "note": "[Example 11, 9-(((2S,3R)-3-ethyl-5-oxopyrrolidin-2-yl)methoxy)-2-methylimidazo[1,2-a]quinoline-4-carboxamide]", "values": [{"measurement": "IC50", "setting": "[1]; [3]", "result": 3.4, "unit": "nM"}, {"measurement": "IC50", "setting": "[2]", "result": 3460, "unit": "nM"}]}, {"smiles": "NC(=O)c1cc2cccc(OC[C@@H]3CCC(=O)N3)c2n2ccnc12", "note": "[Example 1, (S)-9-((5-oxopyrrolidin-2-yl)methoxy)imidazo[1,2-a]quinoline-4-carboxamide]", "values": [{"measurement": "IC50", "setting": "[1]; [3]", "result": 20.6, "unit": "nM"}, {"measurement": "IC50", "setting": "[2]", "result": 1420, "unit": "nM"}]}, {"smiles": "CC[C@@H]1[C@H](F)C(=O)N[C@@H]1COc1ccc(F)c2cc(C(N)=O)c3nccn3c12", "note": "[Example 15, 9-(((2S,3S,4S)-3-ethyl-4-fluoro-5-oxopyrrolidin-2-yl)methoxy)-6-fluoroimidazo[1,2-a]quinoline-4-carboxamide]", "values": [{"measurement": "IC50", "setting": "[1]; [3]", "result": 8.2, "unit": "nM"}, {"measurement": "IC50", "setting": "[2]", "result": 2650, "unit": "nM"}]}, {"smiles": "CC[C@@H]1CC(=O)N[C@@H]1COc1nccc2cc(C(N)=O)c3ncnn3c12", "note": "[Example 46, 9-(((2S,3R)-3-ethyl-5-oxopyrrolidin-2-yl)methoxy)-[1,2,4]triazolo[1,5-a][1,7]naphthyridine-4-carboxamide]", "values": [{"measurement": "IC50", "setting": "[1]; FL-[…] peptide 1.5 μM", "result": 9.7, "unit": "nM"}, {"measurement": "IC50", "setting": "[2]", "result": 1080, "unit": "nM"}]}, {"smiles": "CC[C@@H]1CC(=O)N[C@@H]1COc1nccc2cc(C(N)=O)c3nc(C)nn3c12", "note": "[Example 49, 9-(((2S,3R)-3-ethyl-5-oxopyrrolidin-2-yl)methoxy)-2-methyl-[1,2,4]triazolo[1,5-a][1,7]naphthyridine-4-carboxamide]", "values": [{"measurement": "IC50", "setting": "[1]; [3]", "result": 29.1, "unit": "nM"}, {"measurement": "IC50", "setting": "[2]", "result": 2020, "unit": "nM"}]}, {"smiles": "CC[C@@H]1[C@H](F)C(=O)N[C@@H]1COc1nccc2cc(C(N)=O)c3nccn3c12", "note": "[Example 17, 1-(((2S,3S,4S)-3-ethyl-4-fluoro-5-oxopyrrolidin-2-yl)methoxy)imidazo[1,2-a][1,7]naphthyridine-6-carboxamide]", "values": [{"measurement": "IC50", "setting": "[1]; [3]", "result": 4.7, "unit": "nM"}, {"measurement": "IC50", "setting": "[2]", "result": 94, "unit": "nM"}]}, {"smiles": "CC[C@@H]1CC(=O)N[C@@H]1COc1cccc2cc(C(N)=O)c3ncnn3c12", "note": "[Example 37, 9-(((2S,3R)-3-ethyl-5-oxopyrrolidin-2-yl)methoxy)-[1,2,4]triazolo[1,5-a]quinoline-4-carboxamide]", "values": [{"measurement": "IC50", "setting": "[1]; [3]", "result": 3.4, "unit": "nM"}, {"measurement": "IC50", "setting": "[2]", "result": 586, "unit": "nM"}]}, {"smiles": "CC[C@@H]1[C@H](F)C(=O)N[C@@H]1COC1=CC(F)=CC2C=C(C(N)=O)c3nccn3C12", "note": "(stereo partly drawn) [Example 58, 9-(((2S,3S,4S)-3-ethyl-4-fluoro-5-oxopyrrolidin-2-yl)methoxy)-7-fluoro-5a,9a-dihydroimidazo[1,2-a]quinoline-4-carboxamide]", "values": [{"measurement": "IC50", "setting": "[1]; [3]", "result": 15.4, "unit": "nM"}, {"measurement": "IC50", "setting": "[2]", "result": 4230, "unit": "nM"}]}, {"smiles": "CC[C@@H]1OC(=O)N[C@@H]1COc1nccc2cc(C(N)=O)c3nccn3c12", "note": "[Example 22, 1-(((4R,5S)-5-ethyl-2-oxooxazolidin-4-yl)methoxy)imidazo[1,2-a][1,7]naphthyridine-6-carboxamide]", "values": [{"measurement": "IC50", "setting": "[1]; [3]", "result": 2.1, "unit": "nM"}, {"measurement": "IC50", "setting": "[2]", "result": 4780, "unit": "nM"}]}, {"smiles": "CC[C@@H]1CC(=O)N[C@@H]1COC1=CC(F)=CC2C=C(C(N)=O)c3nccn3C12", "note": "(stereo partly drawn) [Example 57, 9-(((2S,3R)-3-ethyl-5-oxopyrrolidin-2-yl)methoxy)-7-fluoro-5a,9a-dihydroimidazo[1,2-a]quinoline-4-carboxamide]", "values": [{"measurement": "IC50", "setting": "[1]; [3]", "result": 9.7, "unit": "nM"}, {"measurement": "IC50", "setting": "[2]", "result": 1460, "unit": "nM"}]}, {"smiles": "CC[C@@H]1[C@H](F)C(=O)N[C@@H]1COC1=CC=CC2C=C(C(N)=O)n3nc(C)cc3C12", "note": "(stereo partly drawn) [Example 62, 10-(((2S,3S,4S)-3-ethyl-4-fluoro-5-oxopyrrolidin-2-yl)methoxy)-2-methyl-6a,10a-dihydropyrazolo[5,1-a]isoquinoline-5-carboxamide]", "values": [{"measurement": "IC50", "setting": "[1]; [3]", "result": 2.3, "unit": "nM"}, {"measurement": "IC50", "setting": "[2]", "result": 2510, "unit": "nM"}]}, {"smiles": "CC[C@@H]1CC(=O)N[C@@H]1COc1nccc2cc(C(N)=O)c3ncccc3c12", "note": "[Example 55, 1-(((2S,3R)-3-ethyl-5-oxopyrrolidin-2-yl)methoxy)-2,7-phenanthroline-6-carboxamide]", "values": [{"measurement": "IC50", "setting": "[1]; [3]", "result": 15.3, "unit": "nM"}, {"measurement": "IC50", "setting": "[2]", "result": 879, "unit": "nM"}]}, {"smiles": "CC[C@@H]1[C@H](F)C(=O)N[C@@H]1COc1cccc2cc(C(N)=O)c3nc(C)cn3c12", "note": "[Example 12, 9-(((2S,3S,4S)-3-ethyl-4-fluoro-5-oxopyrrolidin-2-yl)methoxy)-2-methylimidazo[1,2-a]quinoline-4-carboxamide]", "values": [{"measurement": "IC50", "setting": "[1]; [3]", "result": 2.2, "unit": "nM"}, {"measurement": "IC50", "setting": "[2]", "result": 10000, "unit": "nM"}]}]}
